Measured values: patent US8501713B2, “Drug combinations for the treatment of duchenne muscular dystrophy” (Summit Corporation PLC, priority 2007, dated 2013)

Test system: mdx hearts
Assay: not given
Conditions: Khairallah et al. (2008); cited from earlier work
In the case of `CCCc1nn(C)c2c(=O)[nH]c(-c3cc(S(=O)(=O)N4CCN(C)CC4)ccc3OCC)nc12` [sildenafil], the myocardial contractile performance is listed as “prevents deterioration of myocardial contractile performance”.

Test system: Utrophin A promoter linked to a luciferase reporter gene
Assay: Luciferase reporter assay (murine H2K cells)
Format: cell-based
Conditions: Mus musculus, H2K mdx, luciferase level relative to control; H2K/mdx/Utro A reporter cells; compound 10 μM final concentration; read-out: Activity
Method in brief: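 Immortalized mdx mouse H2K myoblasts stably carrying a ~5 kb utrophin A promoter–luciferase construct, kept at 33° C, 10% CO2. After 24 hrs plating, compound added at 10 μM final for 48 hrs; luciferase light output read after in-situ lysis.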
Compound `CCS(=O)(=O)c1ccc2oc(-c3ccc4ccccc4c3)nc2c1` [Example 390, 5-(ethylsulfonyl)-2-(naphthalen-2-yl)benzo[d]oxazole] has an activity at 10 µM of 301 to 400%.

Same assay, conditions: luciferase reporter assay in murine H2K cells; classified relative to control
For `OCc1cn(-c2ccccc2)nc1-c1cc2ccccc2o1` [Example 674], the Activity was “++ (Between 201% and 300% relative to control)”. For `COc1ccc(-c2nc3cc(C)ccc3o2)cc1` [Example 675], the Activity was “++ (Between 201% and 300% relative to control)”. For `CCOc1ccc(NCc2nc3ccccc3n2C)cc1` [Example 676], the Activity was “++ (Between 201% and 300% relative to control)”. In the case of `Cc1ccc2oc(-c3ccc(Cl)c(NC(=O)c4ccco4)c3)nc2c1` [Example 677], the Activity is reported as “++ (Between 201% and 300% relative to control)”. In the case of `Cc1nc(Nc2nc3ccccc3o2)nc2c1CCC2` [Example 678], the Activity is reported as “++ (Between 201% and 300% relative to control)”. With `O=C(Nc1nc2ccccc2[nH]1)c1cccc(Cl)c1` [Example 679] the Activity was “++ (Between 201% and 300% relative to control)”. With `O=C(Nc1ccc(-c2nc3ccccc3s2)cc1)C1CCCO1` (stereo not shown) [Example 680] the Activity was “++ (Between 201% and 300% relative to control)”. In the case of `CC(=O)c1c(C)nc(Nc2nc3ccccc3o2)nc1C` [Example 681], the Activity is reported as “++ (Between 201% and 300% relative to control)”. For `Cc1ccnc(Nc2nc3ccccc3o2)n1` [Example 682], the Activity was “++ (Between 201% and 300% relative to control)”. In the case of `CN(C)S(=O)(=O)c1ccc2nc(NC(=O)c3cccs3)sc2c1` [Example 683], the Activity is reported as “++ (Between 201% and 300% relative to control)”. With `Cc1ccc2oc(-c3cc(NC(=O)c4cncc(Br)c4)ccc3O)nc2c1` [Example 684] the Activity was “++ (Between 201% and 300% relative to control)”. For `O=C(CSc1nc[nH]n1)Nc1ccc(-c2nc3ccccc3s2)cc1` [Example 685], the Activity was “++ (Between 201% and 300% relative to control)”. With `COc1ccc2oc(-c3ccc(C)c(N)c3)nc2c1` [Example 686] the Activity was “++ (Between 201% and 300% relative to control)”. For `CNS(=O)(=O)c1ccc2nc(NC(=O)c3cccs3)sc2c1` [Example 687], the Activity was “++ (Between 201% and 300% relative to control)”. In the case of `Cc1ccc2sc(-c3ccc(NC(=O)c4cc(-n5cnnc5)ccc4Cl)cc3)nc2c1` [Example 688], the Activity is reported as “++ (Between 201% and 300% relative to control)”. With `O=C(Nc1ccccc1F)C(=O)c1c[nH]c2ccccc12` [Example 689] the Activity was “++ (Between 201% and 300% relative to control)”.

Test system: skeletal muscle cells
Assay: Myotube formation and muscle protein expression in primary cultures of skeletal muscle cells
Format: cell-based, mice
Conditions: myotube cultures treated for 7 days; Western blot
Protocol: GTE and EGCG also display unexpected pro myogenic properties. Primary cultures of skeletal muscle cells were established from both normal and dystrophic mice and treated with GTE and EGCG for 1-7 days. […] The amount of myotubes reached similar level with both agents compared to control thereafter. Western-blot analysis was performed on myotube cultures treated for 7 days.
In the case of `O=C(O[C@@H]1Cc2c(O)cc(O)cc2O[C@@H]1c1cc(O)c(O)c(O)c1)c1cc(O)c(O)c(O)c1` [EGCG, epigallocatechin gallate], the “expression of muscle-specific proteins (dystrophin, sarcomeric alpha actinin, MyHC)” value is reported as “promoted the expression of several muscle-specific proteins”.

Same assay, conditions: primary skeletal muscle cell cultures from normal and dystrophic mice; within first 2-4 days; MyHC staining
In the case of `O=C(O[C@@H]1Cc2c(O)cc(O)cc2O[C@@H]1c1cc(O)c(O)c(O)c1)c1cc(O)c(O)c(O)c1` [EGCG, epigallocatechin gallate], the “rate of formation of myotubes” value is reported as “concentration-dependently stimulated the rate of formation of myotubes”.

Test system: mdx mice
Assay: Forced exercise treadmill test: fatigue in mdx mice
Format: in vivo, mdx mouse
Conditions: 50 mg/kg ip daily for 5 weeks in combination with prednisolone, FIG. 4
Protocol: The effect of combinations of a compound of formula (1) with a corticosteroid (prednisolone) was examined by measuring fatigue induced by a forced exercise regime in mdx mice. Four to five week-old male mdx mice were forced to exercise (30 min running on horizontal treadmill at 12 m/min twice a week on the same day and at the same time) over a five week treatment course. Each treatment group included 6 mice. At the end of the treatment course, exhaustion was induced by running on a horizontal treadmill at 5 m/min for 5 min, with incremental speed increases of 1 m/min each minute until exhaustion. The total distance run was then measured. […] Sedentary and vehicle only groups acted as negative controls.
In the case of `CCS(=O)(=O)c1ccc2oc(-c3ccc4ccccc4c3)nc2c1` [Example 390, 5-(ethylsulfonyl)-2-(naphthalen-2-yl)benzo[d]oxazole], the “exercise-induced fatigue (total distance run to exhaustion)” value is reported as “act in synergy to reduce exercise-induced fatigue”. With `C[C@]12C=CC(=O)C=C1CC[C@@H]1[C@@H]2[C@@H](O)C[C@@]2(C)[C@H]1CC[C@]2(O)C(=O)CO` [PDN, prednisolone, reference compound] the “exercise-induced fatigue (total distance run to exhaustion)” value was “act in synergy to reduce exercise-induced fatigue”.
